Experimental findings from patent publication EP0269230A1, “Heterocyclic compounds” (priority 1986, dated 1988) are described below.

In brackets after ≈: the same amount, converted by molar mass. A value given as a limit tells only on which side of the number the result lay.

Series [1] has as its system Musca domestica (WRL strain). Briefly: Topical application to unanaesthetised female Musca domestica. It counts as in vivo. As to conditions: topical application in cellosolve; mortality assessed after 10 mins, 1 hr, 24 hrs and 48 hrs. The procedure: Mortality was assessed after 10 mins, 1 hr, 24 hrs and 48 hrs.
The test system of a further series is Myzus persicae. Nature of the series: Lethal activity against insects, spray test on adult Myzus on chinese cabbage leaf disc. The format is in vivo. As to conditions: 10 adult Myzus on leaf disc sprayed, mortality after 2 days at 25°C. The procedure: (§1) The activity of the compounds of the invention was tested by dissolving the compounds in acetone (5%) and then diluting in water: "Symperonic" (94.5%:0.5%) to give a water emulsion. The solution was then used to treat the following insects: Musca domestica, Plutella xylostella, Myzus persicae and Tetranychus urticae.
10 adult Myzus were placed on a leaf disc of chinese cabbage. 24 hours later the disc was sprayed with the solution containing the compound. Mortality was assessed after 2 days at 25°C.

Series [2] has as its system Coriolusversicolor, Coniophora putena, Aureobasidium pullulans and Chaetomium globosum. Nature of the series: Antifungal testing, primary soft agar screen, inhibition of hyphae growth. It counts as cell-based. As to conditions: fungus not specified per compound; for IC50: read-out: IC₅₀. The procedure: The antifungal activity of compounds of the invention was determined using a primary soft agar screen. The concentration dependent inhibition of hyphae growth was determined for Coriolusversicolor, Coniophora putena, Aureobasidium pullulans and Chaetomium globosum.

The next series concerns Musca domestica. Nature of the series: Lethal activity against insects, spray test on female Musca domestica. To be noted: sprayed onto 20 female Musca domestica, mortality after 48 hrs at 25°C. The format is in vivo. The procedure: as §1
20 Female Musca domestica were contained in a cardboard cyclinder with gauze over either end. A solution containing the compounds was sprayed onto the insects so enclosed and mortality assessed after 48 hrs at 25°C.

Series [3] can be described thus: Mammalian toxicity, oral, mice. It counts as in vivo. As to conditions: given orally to mice (Charles River CD1). Here is the method:
1-(2E)-6-Methoxyimino-3-methylhex-2-enyl-2-methylbenzimidazole and 1-geranyl-2,6,7-trimethylbenzimidazole have an LD₅₀ value of approximately 200 mg when given orally to mice (Charles River CD1).

The next series has as its system Plutella xylostella. Nature of the series: Lethal activity against insects, spray test on Plutella larvae on chinese cabbage leaf. The format is in vivo. To be noted: 7 Plutella larvae and leaf sprayed, mortality after 2 days at 25°C. The procedure:
as §1
7 Plutella larvae were sprayed with the solution containing the compound and added to a chinese cabbage leaf which had been similarly sprayed and left to dry. Mortality was assessed after 2-days at 25°C.

The test system of the next series is Tetranychus urticae. Briefly: Lethal activity, spray test on infested french bean leaf discs. As to conditions: infested leaf discs sprayed, mortality after 2 days at 25°C. It counts as in vivo. Here is the method:
as §1
Leaf discs of infested french bean were sprayed with the solution containing the compound. Mortality was assessed after 2 days at 25°C.

In series [1], “1-Geranyl-2-methyl-5(6)-nitrobenzimidazole” yielded an LD₅₀ of less than 10 µg/fly. For the same molecule, the “active on Myzus persicae at 1000 ppm” value with Myzus persicae is listed as “active”.

In series [1], “1-Geranyl-5(6)-methoxy-2-methylbenzimidazole” yielded an LD₅₀ of less than 10 µg/fly. This molecule also gave an IC₅₀ in series [2] of 30 ppm. Besides, the “active at 1000 ppm” value in the series with Musca domestica was “active”. In addition, in the series with Myzus persicae, the “active on Myzus persicae at 1000 ppm” value is “active”.

In series [2], “5(6)-Chloro-geranyl-2-methylbenzimidazole” came in with an IC₅₀ of 30 ppm.

For “5(6)-Ethoxy-1-geranyl-2-methyl-benzimidazole”, the IC₅₀ in series [2] is recorded as 30 ppm.

On to `CC(=CCn1c(C)nc2ccccc21)CCOC(C)C` (mixture of isomers) [(E/Z)-1-(5-isopropoxy-3-methylpent-2-enyl)-2-methylbenzimidazole], for which, in series [1], the LD₅₀ is recorded as less than 10 µg/fly.

`C/C(=C\Cn1c(C)nc2ccccc21)CCC=C(Cl)Cl` [1-, (2E)-7,7-Dichloro-3-methylhepta-2,6-dienyl,-2-methylbenzimidazole]: the IC50 in series [2] stood at 30 µg/mL (≈ 97 µM).

Turning to `CC(C)=CCC/C(C)=C/Cn1c(C)nc2c(C)cccc21` [1-Geranyl-2,4-dimethylbenzimidazole, 2,4-Dimethyl-1-geranylbenzimidazole], the LD₅₀ in series [1] is less than 10 µg/fly. Further, the IC50 in series [2] is 30 µg/mL (≈ 106 µM). For the same molecule, the “active at 200 ppm” value in the series on Musca domestica and in the series with Myzus persicae was “active” each time.

`CC(C)=CCC/C(C)=C/Cn1c(C)nc2cc(C)c(C)cc21` [1-Geranyl-2,5,6-trimethylbenzimidazole]: the IC50 in series [2] was found to be 30 µg/mL (≈ 101 µM).

In the case of `CC(C)=CCC/C(C)=C/Cn1c(C)nc2ccc(C)c(C)c21` [1-Geranyl-2,6,7-trimethylbenzimidazole], the LD₅₀ in series [1] was less than 10 µg/fly; in series [3] it was “approximately 200 mg”. The IC50 in series [2] amounted to 30 µg/mL (≈ 101 µM). Also, the “active at 1000 ppm” value with Musca domestica is “active”. In addition, the “active on Myzus persicae at 1000 ppm” value in the series on Myzus persicae was “active”.

Take `CC(C)=CCC/C(C)=C/Cn1c(C)nc2c([N+](=O)[O-])cccc21` [1-Geranyl-2-methyl-4-nitrobenzimidazole]: the LD₅₀ in series [1] is on record as less than 10 µg/fly. In series [2], the IC50 was 30 µg/mL (≈ 95.7 µM). Further, in the series with Musca domestica, the “active at 1000 ppm” value is “active”. For the same molecule, in the series with Myzus persicae, the “active at 200 ppm” value is on record as “active”.

Turning to `C=CCCC(C)=CCn1c(C)nc2ccccc21` [1-[3-Methylhepta-2,6-dienyl]-2-methylbenzimidazole], the IC50 in series [2] came out at 30 µg/mL (≈ 125 µM).

On to `CON=CCC/C(C)=C/Cn1c(C)nc2ccccc21` [1-[(2E)-6-Methoxyimino-3-methylhex-2-enyl]-2-methybenzimidazole], for which the LD₅₀ is reported as less than 10 µg/fly in series [1] and “approximately 200 mg” in series [3].

Take `C=CCCC=CCn1c(C)nc2ccccc21` [1-[Hepta-2,6-dienyl]-2-methylbenzimidazole]: in series [2], the IC50 was 30 µg/mL (≈ 133 µM).

Regarding `CC(C)=CCC/C(C)=C/Cn1c(Cl)nc2ccccc21` [2-Chloro-1-geranylbenzimidazole], the LD₅₀ in series [1] was less than 10 µg/fly. Moreover, the “active at 1000 ppm” value in the series with Musca domestica was “active”. Also, the “active on Myzus persicae at 1000 ppm” value with Myzus persicae is “active”.

On to `C/C(=C\Cn1c(C)nc2ccccc21)CCC=NOCc1ccccc1` [2-Methyl-1-[(2E)-3-methyl-6-benzyloxyiminohex-2-enyl]benzimidazole], for which the IC50 in series [2] stood at 30 µg/mL (≈ 86.3 µM).

As for `CC(C)=CCC/C(C)=C/Cn1c(C)nc2c(Cl)cc(Cl)cc21` [4(7),6(5)-Dichloro-1-geranyl-2-methylbenzimidazole], in series [2], the IC₅₀ was determined as 30 ppm.

Take `CC(C)=CCC/C(C)=C/Cn1c(C)nc2c(N)cccc21` [4-Amino-1-geranyl-2-methylbenzimidazole]: the LD₅₀ in series [1] is on record as less than 10 µg/fly. Moreover, the IC50 in series [2] stood at 30 µg/mL (≈ 106 µM). For the same molecule, the “active at 1000 ppm” value in the series with Musca domestica is “active”.

`COC(C)(C)CCC/C(C)=C/Cn1c(C)nc2c(C)c(C)ccc21` [(2E)-1-(7-Methoxy-3,7-dimethyloct-2-enyl)-2,4,5-trimethylbenzimidazole] returned an LD₅₀ in series [1] of less than 10 µg/fly. Moreover, in the series on Plutella xylostella, the “active at 1000 ppm” value was “active”. Besides, the “active at 200 ppm” value in the series with Musca domestica and in the series with Myzus persicae was “active” throughout.

On to `COC(C)(C)CCC/C(C)=C/Cn1c(C)nc2c(C)cccc21` [(2E)-1-(7-Methoxy-3,7-dimethyloct-2-enyl)-2,4-dimethylbenzimidazole], for which the LD₅₀ in series [1] is recorded as less than 10 µg/fly. Besides, in series [2], the IC50 came out at 30 µg/mL (≈ 95.4 µM). The “active at 200 ppm” value in the series with Musca domestica and in the series with Myzus persicae was “active” throughout. Moreover, in the series with Tetranychus urticae, the “active against Tetranychus urticae at 200 ppm” value is “active”.

On to `COC(C)(C)CCC/C(C)=C/Cn1c(C)nc2ccc(C)c(C)c21` [(2E)-1-(7-Methoxy-3,7-dimethyloct-2-enyl)-2,6,7-trimethylbenzimidazole], for which the IC50 in series [2] was 30 µg/mL (≈ 91.3 µM).

Molecule `CC=CCC/C(C)=C/Cn1c(C)nc2ccccc21` [(2E)-2-Methyl-1-(3-methlocta-2,6-dienyl)benzimidazole] showed an LD₅₀ in series [1] of less than 10 µg/fly. In series [2], the IC50 was 30 µg/mL (≈ 118 µM).

With `CC(C)=CCC/C(C)=C/CC/C(C)=C/Cn1c(C)nc2c(C)cccc21` [(2E,6E)-2,4-dimethyl-1-(3,7,11)-(trimethyldodeca-2,6,10-trienyl)benzimidazole], in series [2], the IC50 is 30 µg/mL (≈ 85.6 µM).

For `COc1ccc2c(c1)nc(C)n2C/C=C(\C)CC/C=C(\C)CCC=C(C)C` [(2E,6E)-5-Methoxy-2-methyl-1-(3,7,11-trimethyldodeca-2,6,10-trienyl)benzimidazole], the IC50 in series [2] stood at 30 µg/mL (≈ 81.8 µM).

`C/C(=C\Cn1c(C)nc2ccccc21)CCCC(C)(C)OC(=O)Nc1ccccc1` [(5E)-7-(2-Methylbenzimidazole-1-yl)-1,1,5-trimethylhept-5-enyl-N-phenyl-carbamate] came in with an LD₅₀ in series [1] of less than 10 µg/fly. The IC50 in series [2] was determined as 30 µg/mL (≈ 74 µM).

As for `COC(=O)c1cccc2nc(C)n(C/C=C(\C)CCC=C(C)C)c12` [Methyl 1-geranyl-2-methyl-benzimidazole-7-carboxylate], the IC50 in series [2] was 30 µg/mL (≈ 91.9 µM).
